Experimental data published in patent US6548270B1, “DNA encoding human acid-sensing ion channel BNaC4 (ASIC4)” (Ortho-McNeil Pharmaceutical, Inc., priority 2000, dated 2003).

Biological target: T1, human BNaC4 (Homo sapiens, UniProt Q96FT7)
T1 sequence (Q96FT7 1-539): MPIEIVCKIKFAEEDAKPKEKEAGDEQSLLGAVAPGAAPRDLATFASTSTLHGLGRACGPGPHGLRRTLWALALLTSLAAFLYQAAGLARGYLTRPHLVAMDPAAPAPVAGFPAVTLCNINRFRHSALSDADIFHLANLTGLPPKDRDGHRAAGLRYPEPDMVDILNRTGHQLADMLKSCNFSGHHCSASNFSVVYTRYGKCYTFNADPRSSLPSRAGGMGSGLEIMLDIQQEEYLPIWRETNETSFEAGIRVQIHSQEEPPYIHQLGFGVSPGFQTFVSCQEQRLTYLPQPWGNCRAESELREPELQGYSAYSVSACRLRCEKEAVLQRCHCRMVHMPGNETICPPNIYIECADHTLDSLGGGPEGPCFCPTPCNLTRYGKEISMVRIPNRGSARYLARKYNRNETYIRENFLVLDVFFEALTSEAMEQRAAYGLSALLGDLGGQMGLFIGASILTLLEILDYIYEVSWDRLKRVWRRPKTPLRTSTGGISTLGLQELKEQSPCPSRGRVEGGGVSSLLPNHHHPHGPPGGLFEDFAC
Assay: pH 5.5-induced whole cell current in Xenopus oocytes injected with human BNaC4 cRNA (two-electrode voltage clamp)
Format: cell-based
Details: 200 uM amiloride, bath application; oocytes injected with hBNaC4 cRNA; n=3
Experimental: Xenopus laevis oocytes were prepared and injected using standard methods previously described and known in the art (Fraser et al., 1993). Ovarian lobes from adult female Xenopus laevis (Nasco, Fort Atkinson, Wis.) were teased apart, rinsed several times in nominally Ca-free saline containing: 82.5 mM NaCl, 2.5 mM KCl, 1 mM MgCl2, 5 mM HEPES, adjusted to pH 7.0 with NaOH (OR-2), and gently shaken in OR-2 containing 0.2% collagenase Type 1 (ICN Biomedicals, Aurora, Ohio) for 2-5 hours. When approximately 50% of the follicular layers were removed, Stage V and VI oocytes were selected and rinsed in media consisting of 75% OR-2 and 25% ND-96. […]
Oocytes were injected with 50 nl of the human BNaC4 RNA (0.002-5 ng). […] Whole cell agonist (protons)-induced currents were measured 1-6 days after injection with a conventional two-electrode voltage clamp (GeneClamp50O, Axon Instruments, Foster City, Calif.) using standard methods previously described and known in the art (Dascal, Nathan (1987) The use of Xenopus oocytes for the study of ion channels. CRC Critical reviews in Biochemistry 22:317-387). […]
Functional expression of human BNaC4 in Xenopus oocytes is shown: activation by pH 5.5. […] The oocyte was recorded 3 days after injection of 2 ng hBNaC CRNA. […] The BNaC4 oocytes tested produced currents of at least +60 nA (measured at +80 mV at the end of a voltage ramp protocol) (range +60 to +1240 nA). […]

SMILES: N=C(N)NC(=O)c1nc(Cl)c(N)nc1N [amiloride]
- block of the pH5.5-induced fast increase in conductance: 40+/−13%
